Values quoted from earlier work, collected in publication PMC3462432 (FEBS letters, 2012).

Legend:
[1] = system: mouse leukemia cells
[2] = system: B. anthracis

Substance | in vitro activity against mouse leukemia cells [1] | activity against B. anthracis [2]
cypemycin | potent in vitro activity | –
plantazolicin A | – | potent activity
plantazolicin B | – | devoid of activity
